{"source": "PubChem BioAssay (NCI)", "assay_in_all_cases": "growth of human tumour cells (NCI), 48 h", "key": {"A549 NSCLC": {"tested_on": "A549 NSCLC"}, "EKVX NSCLC": {"tested_on": "EKVX NSCLC"}, "HOP-62 NSCLC": {"tested_on": "HOP-62 NSCLC"}, "HOP-92 NSCLC": {"tested_on": "HOP-92 NSCLC"}, "KM12 colon": {"tested_on": "KM12 colon"}, "OVCAR-5 ovarian": {"tested_on": "OVCAR-5 ovarian"}, "SF-295 CNS": {"tested_on": "SF-295 CNS"}, "SN12C renal": {"tested_on": "SN12C renal"}, "SR leukemia": {"tested_on": "SR leukemia"}, "TK-10 renal": {"tested_on": "TK-10 renal"}}, "note": "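Grown in 96-well plates, cells were treated for 48 hours with each compound at five concentrations. Insufficient inhibition: endpoint recorded as highest concentration tested. Definition used: TGI = concentration required for complete inhibition of growth.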", "data": [{"smiles": "C(/Cc1ccc2c(c1)OCO2)=N\\NC1=NCCCCN1", "values": [{"measurement": "TGI", "setting": "A549 NSCLC", "value": "> 100", "unit": "µM"}, {"measurement": "TGI", "setting": "EKVX NSCLC", "value": "> 100", "unit": "µM"}, {"measurement": "TGI", "setting": "HOP-62 NSCLC", "value": "> 100", "unit": "µM"}, {"measurement": "TGI", "setting": "HOP-92 NSCLC", "value": "> 100", "unit": "µM"}, {"measurement": "TGI", "setting": "KM12 colon", "value": "> 100", "unit": "µM"}, {"measurement": "TGI", "setting": "OVCAR-5 ovarian", "value": "> 100", "unit": "µM"}, {"measurement": "TGI", "setting": "SF-295 CNS", "value": "> 100", "unit": "µM"}, {"measurement": "TGI", "setting": "SN12C renal", "value": "> 100", "unit": "µM"}, {"measurement": "TGI", "setting": "SR leukemia", "value": "> 100", "unit": "µM"}, {"measurement": "TGI", "setting": "TK-10 renal", "value": "> 100", "unit": "µM"}]}, {"smiles": "Cn1c(=O)c2c(n(C)c1=O)n1c(=O)c3ccccc3nc1n2C", "values": [{"measurement": "TGI", "setting": "A549 NSCLC", "value": "> 100", "unit": "µM"}, {"measurement": "TGI", "setting": "EKVX NSCLC", "value": "> 100", "unit": "µM"}, {"measurement": "TGI", "setting": "HOP-62 NSCLC", "value": "> 100", "unit": "µM"}, {"measurement": "TGI", "setting": "HOP-92 NSCLC", "value": "> 100", "unit": "µM"}, {"measurement": "TGI", "setting": "KM12 colon", "value": "> 100", "unit": "µM"}, {"measurement": "TGI", "setting": "OVCAR-5 ovarian", "value": "> 100", "unit": "µM"}, {"measurement": "TGI", "setting": "SF-295 CNS", "value": "> 100", "unit": "µM"}, {"measurement": "TGI", "setting": "SN12C renal", "value": "> 100", "unit": "µM"}, {"measurement": "TGI", "setting": "SR leukemia", "value": "> 100", "unit": "µM"}, {"measurement": "TGI", "setting": "TK-10 renal", "value": "> 100", "unit": "µM"}]}, {"smiles": "COc1ccc(N=C(SSC(=Nc2ccc(OC)cc2)c2ccc([N+](=O)[O-])o2)c2ccc([N+](=O)[O-])o2)cc1", "values": [{"measurement": "TGI", "setting": "A549 NSCLC", "value": "> 100", "unit": "µM"}, {"measurement": "TGI", "setting": "EKVX NSCLC", "value": 3.47, "unit": "µM"}, {"measurement": "TGI", "setting": "HOP-62 NSCLC", "value": 6.41, "unit": "µM"}, {"measurement": "TGI", "setting": "HOP-92 NSCLC", "value": 6.7, "unit": "µM"}, {"measurement": "TGI", "setting": "KM12 colon", "value": 2.79, "unit": "µM"}, {"measurement": "TGI", "setting": "OVCAR-5 ovarian", "value": 5.01, "unit": "µM"}, {"measurement": "TGI", "setting": "SF-295 CNS", "value": 6.14, "unit": "µM"}, {"measurement": "TGI", "setting": "SN12C renal", "value": 4.87, "unit": "µM"}, {"measurement": "TGI", "setting": "SR leukemia", "value": "> 21.7", "unit": "µM"}, {"measurement": "TGI", "setting": "TK-10 renal", "value": 7.55, "unit": "µM"}]}, {"smiles": "CCc1n[nH]c(=O)n1-c1ccncc1", "values": [{"measurement": "TGI", "setting": "A549 NSCLC", "value": "> 100", "unit": "µM"}, {"measurement": "TGI", "setting": "EKVX NSCLC", "value": "> 100", "unit": "µM"}, {"measurement": "TGI", "setting": "HOP-62 NSCLC", "value": "> 100", "unit": "µM"}, {"measurement": "TGI", "setting": "HOP-92 NSCLC", "value": "> 100", "unit": "µM"}, {"measurement": "TGI", "setting": "KM12 colon", "value": "> 100", "unit": "µM"}, {"measurement": "TGI", "setting": "OVCAR-5 ovarian", "value": "> 100", "unit": "µM"}, {"measurement": "TGI", "setting": "SF-295 CNS", "value": "> 100", "unit": "µM"}, {"measurement": "TGI", "setting": "SN12C renal", "value": "> 100", "unit": "µM"}, {"measurement": "TGI", "setting": "SR leukemia", "value": "> 100", "unit": "µM"}, {"measurement": "TGI", "setting": "TK-10 renal", "value": "> 100", "unit": "µM"}]}, {"smiles": "C/C(=C\\CNc1ncnc2c1ncn2CCC#N)CO", "values": [{"measurement": "TGI", "setting": "A549 NSCLC", "value": "> 100", "unit": "µM"}, {"measurement": "TGI", "setting": "EKVX NSCLC", "value": "> 100", "unit": "µM"}, {"measurement": "TGI", "setting": "HOP-62 NSCLC", "value": "> 100", "unit": "µM"}, {"measurement": "TGI", "setting": "HOP-92 NSCLC", "value": "> 100", "unit": "µM"}, {"measurement": "TGI", "setting": "KM12 colon", "value": "> 100", "unit": "µM"}, {"measurement": "TGI", "setting": "OVCAR-5 ovarian", "value": "> 100", "unit": "µM"}, {"measurement": "TGI", "setting": "SF-295 CNS", "value": "> 100", "unit": "µM"}, {"measurement": "TGI", "setting": "SN12C renal", "value": "> 100", "unit": "µM"}, {"measurement": "TGI", "setting": "SR leukemia", "value": "> 100", "unit": "µM"}, {"measurement": "TGI", "setting": "TK-10 renal", "value": "> 100", "unit": "µM"}]}, {"smiles": "Nc1c(/C=C/c2cc3cc(C4=NCCN4)ccc3o2)[nH]c2cc(C3=NCCN3)ccc12", "values": [{"measurement": "TGI", "setting": "A549 NSCLC", "value": "> 100", "unit": "µM"}, {"measurement": "TGI", "setting": "EKVX NSCLC", "value": "> 100", "unit": "µM"}, {"measurement": "TGI", "setting": "HOP-62 NSCLC", "value": 96, "unit": "µM"}, {"measurement": "TGI", "setting": "HOP-92 NSCLC", "value": "> 100", "unit": "µM"}, {"measurement": "TGI", "setting": "KM12 colon", "value": "> 100", "unit": "µM"}, {"measurement": "TGI", "setting": "OVCAR-5 ovarian", "value": "> 100", "unit": "µM"}, {"measurement": "TGI", "setting": "SF-295 CNS", "value": "> 100", "unit": "µM"}, {"measurement": "TGI", "setting": "SN12C renal", "value": "> 100", "unit": "µM"}, {"measurement": "TGI", "setting": "SR leukemia", "value": "> 100", "unit": "µM"}, {"measurement": "TGI", "setting": "TK-10 renal", "value": 67, "unit": "µM"}]}, {"smiles": "CCCCC(C)(C/C=C/[C@@H]1[C@@H](C(O)CCCCCC(=O)OC)C(=O)C[C@H]1O[Si](C)(C)C(C)(C)C)O[Si](C)(C)C", "note": "(stereo not given in full)", "values": [{"measurement": "TGI", "setting": "A549 NSCLC", "value": "> 100", "unit": "µM"}, {"measurement": "TGI", "setting": "EKVX NSCLC", "value": "> 100", "unit": "µM"}, {"measurement": "TGI", "setting": "HOP-62 NSCLC", "value": "> 100", "unit": "µM"}, {"measurement": "TGI", "setting": "HOP-92 NSCLC", "value": "> 100", "unit": "µM"}, {"measurement": "TGI", "setting": "KM12 colon", "value": "> 100", "unit": "µM"}, {"measurement": "TGI", "setting": "OVCAR-5 ovarian", "value": "> 100", "unit": "µM"}, {"measurement": "TGI", "setting": "SF-295 CNS", "value": "> 100", "unit": "µM"}, {"measurement": "TGI", "setting": "SN12C renal", "value": "> 100", "unit": "µM"}, {"measurement": "TGI", "setting": "SR leukemia", "value": "> 100", "unit": "µM"}, {"measurement": "TGI", "setting": "TK-10 renal", "value": "> 100", "unit": "µM"}]}, {"smiles": "O=C1CSC(c2cccc(Oc3ccccc3)c2)N1c1cc(Cl)ccc1Cl", "note": "(stereo not given)", "values": [{"measurement": "TGI", "setting": "A549 NSCLC", "value": "> 100", "unit": "µM"}, {"measurement": "TGI", "setting": "EKVX NSCLC", "value": 80.9, "unit": "µM"}, {"measurement": "TGI", "setting": "HOP-62 NSCLC", "value": 47.1, "unit": "µM"}, {"measurement": "TGI", "setting": "HOP-92 NSCLC", "value": 42.7, "unit": "µM"}, {"measurement": "TGI", "setting": "KM12 colon", "value": 79.2, "unit": "µM"}, {"measurement": "TGI", "setting": "OVCAR-5 ovarian", "value": 76.9, "unit": "µM"}, {"measurement": "TGI", "setting": "SF-295 CNS", "value": 55.3, "unit": "µM"}, {"measurement": "TGI", "setting": "SN12C renal", "value": 39.1, "unit": "µM"}, {"measurement": "TGI", "setting": "SR leukemia", "value": 44, "unit": "µM"}, {"measurement": "TGI", "setting": "TK-10 renal", "value": 55.1, "unit": "µM"}]}]}
